In series [1] the test system is MDA-MB-453. Kind of series: 10-day CellTiter-Glo antiproliferative assay, MDA-MB-453. In kind it is cell-based. As to conditions: Homo sapiens, MDA-MB-453, 240 h; 10-day exposure, CellTiter-Glo; AR High, ER −, Her2 +/−; read-out: IC50 (μM), MDA-MB-453. Here is the method: (§1) Breast cell lines were cultured according to the distributor's recommendations. The following day, cells were exposed to compounds up to 10 days. Cell viability was assessed using a CellTiter-Glo® assay (Promega) at the end of the incubation period. The growth inhibitory effect was assessed by the concentration inhibiting growth by 50% using a nonlinear regression equation and a variable slope (Graphpad Prism). The mRNA expression levels for the androgen receptor (HUGO: AR) was determined from the DepMap Portal database (release 19Q2).
In general terms: Cellular ATP, detected with luciferase, serves as a proxy for viable cell number.

Series [2] has as its system HCC1500. As to the kind of experiment: 10-day CellTiter-Glo antiproliferative assay, HCC1500. In kind it is cell-based. As to conditions: HCC1500, 240 h, 10-day exposure, AR High, ER +, Her2 −. Here is the method:
as §1

The subject of series [3] is BT549. As to the kind of experiment: 10-day CellTiter-Glo antiproliferative assay, BT549. In kind it is cell-based. To be noted: Homo sapiens, BT-549, 240 h, 10-day exposure, AR Low, ER −, Her2 −. Here is the method:
as §1

Series [4] has as its system TMPRSS2. As to the kind of experiment: qPCR gene expression in AR-v7+ prostate cancer cells, TMPRSS2. In kind it is cell-based. As to conditions: 24 h. Here is the method: (§2) AR-v7+ prostate cancer cells were exposed to compounds 1, 2, 3, or 4 for 24 h. RNA was extracted and gene expression was measured by qPCR using Taqman® primer-probes. GAPDH was used as a housekeeping gene.
On the technique in general: Quantitative PCR measures a nucleic acid by following its amplification.

In series [5] the test system is CAL148. As to the kind of experiment: 10-day CellTiter-Glo antiproliferative assay, CAL148. In kind it is cell-based. As to conditions: Homo sapiens, CAL-148, 240 h, 10-day exposure, AR Low, ER −, Her2 −. How it is done:
as §1

For series [6], the system named is HCC1187. As to the kind of experiment: 10-day CellTiter-Glo antiproliferative assay, HCC1187. In kind it is cell-based. To be noted: Homo sapiens, HCC1187, 240 h, 10-day exposure, AR High, ER −, Her2 −. Here is the method: as §1
Series [7] has as its system VCaP. As to the kind of experiment: 10-day prostate cancer cell proliferation assay, VCaP. In kind it is cell-based. Here is the method: (§3) Prostate cell lines were obtained from ATCC or DSMZ and cultured according to the distributor's recommendations. Prostate cancer cells were plated and incubated overnight. […] Cell viability was assessed using a CellTiter-Glo® assay (Promega) after 10 days drug exposure. The growth inhibitory effect was assessed by the concentration inhibiting growth by 50% using a nonlinear regression equation and a variable slope (Graphpad Prism).

Series [8] concerns CAMA1. As to the kind of experiment: 10-day CellTiter-Glo antiproliferative assay, CAMA1. In kind it is cell-based. To be noted: Homo sapiens, CAMA-1, 240 h, 10-day exposure, AR High, ER +, Her2 −. Here is the method: as §1
In series [9] the test system is AR-negative prostate cancer cell lines DU145 and PC-3. As to the kind of experiment: 10-day proliferation assay, AR-negative prostate cancer cell lines. In kind it is cell-based. As to conditions: 10-day assay. Here is the method: Two AR-negative prostate cancer cell lines DU145 and PC-3 were also evaluated.
as §3

Series [10] has as its system TMPRSS2. Kind of series: Taqman gene expression in AR-positive breast cancer cells, TMPRSS2. In kind it is cell-based. To be noted: 24 hours, read-out: IC50, TMPRSS2 mRNA. How it is done:
(§4) AR-positive breast cancer cells were exposed to increasing concentrations of compounds for 24 hours. RNA was extracted and gene expression measured using Taqman® assays for TMPRSS2 and XBP1.

In series [11] the test system is XBP1. Kind of series: Taqman gene expression in AR-positive breast cancer cells, XBP1. In kind it is cell-based. To be noted: 24 hours, read-out: IC50, XBP1 mRNA. How it is done: as §4
Series [12] deals with KLK3. Kind of series: qPCR gene expression in AR-v7+ prostate cancer cells, KLK3. In kind it is cell-based. As to conditions: 24 h. Here is the method: as §2
The subject of series [13] is AR. Kind of series: AR protein level by western blot in prostate cancer cells. In kind it is cell-based. To be noted: androgen-independent and androgen-dependent prostate cancer cell lines, western blot.
Series [14] relates to MYC. Kind of series: qPCR gene expression in AR-v7+ prostate cancer cells, MYC. To be noted: 24 h. In kind it is cell-based. Here is the method: as §2
In series [15] the test system is 22Rv1. Kind of series: 10-day prostate cancer cell proliferation assay, 22Rv1. In kind it is cell-based. Here is the method: as §3
The subject of series [16] is MDA-MB-231. Kind of series: 10-day CellTiter-Glo antiproliferative assay, MDA-MB-231. In kind it is cell-based. To be noted: Homo sapiens, MDA-MB-231, 240 h, 10-day exposure, AR Low, ER −, Her2 −. Here is the method: as §1
The subject of series [17] is MFM223. Kind of series: 10-day CellTiter-Glo antiproliferative assay, MFM223. In kind it is cell-based. As to conditions: Homo sapiens, MFM-223, 240 h, 10-day exposure, AR Low, ER −, Her2 −. How it is done: as §1
In series [18] the test system is AR-v7. As to the kind of experiment: AR-v7 protein level by western blot in prostate cancer cells. In kind it is cell-based. As to conditions: androgen-independent (AR-v7+) prostate cancer cells, western blot. A general note: A western blot detects proteins with antibodies after separation by electrophoresis.
The test system of series [19] is PC-3. Kind of series: 10-day prostate cancer cell proliferation assay, PC-3. In kind it is cell-based. To be noted: 10-day assay. How it is done:
as §3

Series [20] relates to DU 145. Kind of series: 10-day prostate cancer cell proliferation assay, DU 145. In kind it is cell-based. As to conditions: 10-day assay. How it is done:
as §3

For series [21], the system named is patient-derived xenograft (PDX) model of AR+ prostate cancer sensitive to enzalutamide. Kind of series: Patient-derived xenograft of prostate cancer sensitive to enzalutamide. As to conditions: Compound 1 40 mg/kg/day, enzalutamide 20 mg/kg/day. In kind it is in vivo, NOG mice. How it is done:
The antitumor activity was determined based by tumor volume during the course of the study.
Male NOG mice (6-8 weeks of age) were implanted with tumor fragments. When tumors reached an average tumor volume of 150-200 mm^3 animals were randomized into different cohort groups and dosing initiated on the same day (Day 0). Animals were weighed twice weekly.
[…] 11.

Series [22] concerns LNCaP. As to the kind of experiment: 10-day prostate cancer cell proliferation assay, LNCaP. In kind it is cell-based. To be noted: 10-day assay. Here is the method:
as §3

The subject of series [23] is patient-derived xenograft model of prostate cancer resistant to enzalutamide. As to the kind of experiment: Patient-derived xenograft of prostate cancer resistant to enzalutamide. In kind it is in vivo, NOG mice. To be noted: enzalutamide arm. How it is done: Male NOG mice (6-8 weeks of age) were implanted with prostate PDX tumor fragments. When tumors reached an average tumor volume of 100-300 mm^3 animals were randomized into different cohort groups and dosing initiated on the same day (Day 0). […] Animals were weighed twice weekly. Tumors were measured twice weekly. The maximum tumor volume of control animals was 1500 mm^3.

Series [24] is described as follows: Dynamic vapor sorption. As to conditions: relative humidity of up to 80%. In kind it is physicochemical. The text has this:
Dynamic Vapor Sorption (DVS) data were collected with a SMS DVS Intrinsic from Surface Measurement Systems.

A short description of series [25]: Solid form stability. As to conditions: temperatures up to 40° C. and relative humidity of up to 75%. In kind it is physicochemical.

The record followed here is patent publication US20240016795A1, “BROMODOMAIN INHIBITORS FOR ANDROGEN RECEPTOR-DRIVEN CANCERS” (FORMA Therapeutics, Inc., priority 2020, published 2024).

Where only a bound is given, the exact number is not on record here.

The IC50 is the concentration needed to halve the response being measured. In the case of `COC(=O)N1c2ccc3c(nc([C@H](O)c4ccccc4)n3[C@@H]3CCC[C@@H](C(=O)O)C3)c2CC[C@@H]1C` [Compound 2, (1R,3R)-3-((S)-2-((R)-hydroxy(phenyl)methyl)-6-(methoxycarbonyl)-7-methyl-6,7,8,9-tetrahydro-3H-imidazo[4,5-f]quinolin-3-yl)cyclohexane-1-carboxylic acid], the IC50 in [1] is 0.2 to 0.5 µM; in series [2] it was 0.5 to 1 µM; in series [3], above 1 µM; in [4], 50 to 100 nM; in series [5] it was above 1 µM; in series [6] it was 0.2 to 0.5 µM. Besides, the IC50 in series [7] (Homo sapiens, VCaP, 240 h, 10 days exposure, WT, AR amplification, androgen-dependent) was above 1000 nM; in series [8], below 0.2 µM; in [10] it was above 500 nM; in series [11], below 100 nM; in series [12], 50 to 100 nM; in series [14], above 100 nM. The IC50 in series [15] (Homo sapiens, 22Rv1, 240 h, 10 days exposure, H857Y/H857Y, AR v7+, androgen-independent, read-out: IC50, 22Rv1) is 500 to 1000 nM; in [16] it was above 1 µM; in series [17] it was above 1 µM. In addition, the “antiproliferative effect, AR-negative cell lines” value in series [9] is “inactive”. In [13], the AR protein level entry was “reduction of both full length and variant forms of the AR”. In series [18], the AR-v7 protein level entry was “reduction of both full length and variant forms of the AR including AR-v7”.

In the case of `COC(=O)N1c2ccc3c(nc([C@H](O)c4cc(F)ccc4OC(F)F)n3[C@@H]3CCC[C@@H](C(=O)O)C3)c2CC[C@@H]1C` [Compound 3, (1R,3R)-3-((S)-2-((R)-(2-(difluoromethoxy)-5-fluorophenyl)(hydroxy)methyl)-6-(methoxycarbonyl)-7-methyl-6,7,8,9-tetrahydro-3H-imidazo[4,5-f]quinolin-3-yl)cyclohexane-1-carboxylic acid], the results for the IC50 in series [4], in [12] and in [14] were 10 to 50 nM, 10 to 50 nM and 50 to 100 nM, respectively.

As to `CNC(=O)c1ccc(N2C(=S)N(c3ccc(C#N)c(C(F)(F)F)c3)C(=O)C2(C)C)cc1F` [Enzalutamide, reference compound], the “anti-proliferative effect, PC3” value in [19] is “inactive”. The “anti-proliferative effect, DU145” value in series [20] was “inactive”. For the same compound, in series [7] (10-day assay), the “anti-proliferative effect (IC50), VCaP” value was “active”. For the same compound, in series [21] (four days), the “AR target gene SPDEF expression in tumor” value is reported as “did not” and the H3K27Ac in tumor result is “did not modulate H3K27Ac”. For the same compound, the “TGI at the end of study” value in series [21] (start of dosing to day 59) is “comparable”. Moreover, the “anti-proliferative effect (IC50), LnCaP” value in [22] is on record as “active”. Further, the “anti-proliferative effect (IC50), 22Rv1” value in [15] (10-day assay) was “inactive”. The compound further gave a TGI in series [23] of 21%.

As for `COC(=O)N1c2ccc3c(nc([C@H](O)c4cc(F)ccc4OC)n3[C@@H]3CCC[C@@H](C(=O)O)C3)c2CC[C@@H]1C.Cl` [type A hydrochloric acid addition salt, (1R,3R)-3-[(7S)-2-[(R)-(5-fluoro-2-methoxyphenyl)(hydroxy)methyl]-6-(methoxycarbonyl)-7-methyl-3H,6H,7H,8H,9H-imidazo[4,5-f]quinolin-3-yl]cyclohexane-1-carboxylic acid hydrochloride], the water uptake in series [24] is 6.3%. Besides, in [25], the solid form stability entry was “stable for at least two weeks”.
